Measured values as given in PubChem BioAssay AID1324 (NMMLSC, 2008).
Calls of active or inactive are those of the source. No rule for the calls is given here.

Molecular target: glutathione S-transferase (GST-GSH binding)
Assay: GST–glutathione interaction disruption – biochemical, multiplex beads, flow cytometry, HPSMTB buffer, profiling panel (AID 1324);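 also: glutathione beads loaded with GST-green fluorescent protein and no fluorescent Bim peptide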
Conditions: multiplex bead flow cytometry, MCF; for percent span inhibition: stronger effect = higher value, concentration not given here

With `CCNC(=S)Nc1cc(OCC)c(NC(=O)c2cccs2)cc1OCC` the percent span inhibition was “inactive”.

For `CCOC(=O)c1cccc(Nc2ncnc3ccccc23)c1`, the percent span inhibition was “inactive”.

In the case of `CSc1nnc2c3cc(C)ccc3n(Cc3ccccc3)c2n1`, the percent span inhibition is reported as “inactive”.

For `O=C(COC(=O)CCCN=C1NS(=O)(=O)c2ccccc21)NC(=O)NC1CCCC1`, the percent span inhibition was “inactive”.

In the case of `c1ccc(-c2nc(N3CCCCCC3)c3ccccc3n2)nc1`, the percent span inhibition is reported as “inactive”.

`CN1CCS/C1=C/C=C1/SC(=S)N(Cc2ccccc2)C1=O` was tested, and the percent span inhibition was “inactive”.

For `OC(COc1ccc2ccccc2c1)CN1CCCC1` (stereo not given), the percent span inhibition was “inactive”.

`CCNCc1cc(Br)c(OCC(=O)Nc2ccccc2)c(OC)c1` was tested, and the percent span inhibition was “inactive”.

`CCN1CCN(c2cc(C)c3cc(NC(=S)N4CCN(c5ccccc5)CC4)ccc3n2)CC1` was tested, and the percent span inhibition was “inactive”.

`COc1ccc(NC(=O)/C(C#N)=C/c2c(C)nn(-c3ccc(F)cc3)c2Cl)cc1Cl` was tested, and the percent span inhibition was “inactive”.

With `Cc1cc(C(=O)NCCCN(C)C)c2ccccc2n1` the percent span inhibition was “inactive”.

`OCCC1CN(Cc2ccc3ncccc3c2)CCN1Cc1ccccc1` (stereo not given) was tested, and the percent span inhibition was “inactive”.

`CC(=O)Nc1ccc(NC2=C(Cl)C(=O)c3ccccc3C2=O)cc1` was tested, and the percent span inhibition was “inactive”.

With `CN(C)S(=O)(=O)N(CC(=O)Nc1ccccc1C(F)(F)F)c1ccccc1` the percent span inhibition was “inactive”.

In the case of `Cc1ccc(-c2ccc(/C=C3\SC(N4CCOCC4)=NC3=O)o2)cc1`, the percent span inhibition is reported as “inactive”.

In the case of `COc1ccc(/C=C/C(=O)Nc2sc(Cc3ccccc3)c(C)c2C(N)=O)cc1`, the percent span inhibition is reported as “inactive”.

In the case of `Cc1c(Cc2ccccc2)sc(N)c1C(N)=O`, the percent span inhibition is reported as “inactive”.

For `Cc1cc2nc(/C(C#N)=C/c3ccncc3)[nH]c2cc1C`, the percent span inhibition was “inactive”.

For `CS(=O)(=O)NN1C(=O)c2ccccc2NC1c1cccc2cccnc12` (stereo not given), the percent span inhibition was “inactive”.

In the case of `O=C1/C(=C\c2ccc(-c3ccccc3Cl)o2)SC(=S)N1CC1CCCO1` (stereo not given), the percent span inhibition is reported as “inactive”.

In the case of `c1ccc(Nc2nc(-c3ccncc3)cs2)cc1`, the percent span inhibition is reported as “inactive”.

`CCOc1ccc(N2C(=O)C(Cl)=C(Nc3ccccc3O)C2=O)cc1` was tested, and the percent span inhibition was “inactive”.

In the case of `Cc1cc(NC(=O)CCCC(=O)N(CC(=O)NC2CCCCC2)c2ccccc2)no1`, the percent span inhibition is reported as “inactive”.

In the case of `CC(C)C(=O)N1CCN(c2ccc([N+](=O)[O-])cc2Cl)CC1`, the percent span inhibition is reported as “inactive”.

In the case of `CCSc1ncc(Cl)c(C(=O)Nc2sc3c(c2C(=O)NCc2cccnc2)CCCC3)n1`, the percent span inhibition is reported as “inactive”.

In the case of `CC(=O)Nc1ccc(-n2cc(-c3ccccc3)[nH]c2=S)cc1`, the percent span inhibition is reported as “inactive”.

With `C=CCn1c(C)c(C(C)=O)c(N2CCOCC2)nc1=S` the percent span inhibition was “inactive”.

In the case of `COC(=O)CCC(=O)Nc1sc(Cc2ccccc2)c(C)c1C(N)=O`, the percent span inhibition is reported as “inactive”.

For `Cc1ccc(/C=N/NC(=O)CSc2nnc(-c3ccc(Cl)cc3)n2-c2ccccc2)o1`, the percent span inhibition was “inactive”.

In the case of `CCn1c(C)nc2cc(C(=O)N/N=C/c3ccc(O)c(O)c3O)ccc21`, the percent span inhibition is reported as “inactive”.

`CCOc1cc(/C=N/NC(=O)c2cccs2)cc([N+](=O)[O-])c1O` was tested, and the percent span inhibition was “inactive”.

In the case of `CC(=O)Nc1ccc2nc(CN3CCN(CC(C)C)C(CCO)C3)ccc2c1` (stereo not given), the percent span inhibition is reported as “inactive”.

For `COc1cccc(/C=N/NC(=O)c2cc3cc([N+](=O)[O-])ccc3s2)c1O`, the percent span inhibition was “inactive”.

For `COC(=O)C1C2c3ccccc3OC1(C)N=c1s/c(=C/c3cnn(C)c3C)c(=O)n12` (stereo not given), the percent span inhibition was “inactive”.

In the case of `CCCCC(=O)Nc1ccc(C(=O)N2CCC(C(=O)OCC)CC2)cc1`, the percent span inhibition is reported as “inactive”.

In the case of `COC(=O)c1c(C(=O)OC)c2cccc3cc(-c4ccccc4)c4ccc1c4n32`, the percent span inhibition is reported as “inactive”.

With `CCN1C(=O)/C(=C/C=C2\C=CN(CC)c3ccccc32)SC1=S` the percent span inhibition was “inactive”.

In the case of `CCCn1c(N2CCN(C)CC2)nc2c1c(=O)[nH]c(=O)n2C`, the percent span inhibition is reported as “inactive”.

In the case of `O=C(C1CCC(Cn2c(=S)[nH]c3ccccc3c2=O)CC1)N1CCN(c2ccccn2)CC1` (stereo not given), the percent span inhibition is reported as “inactive”.

With `CN1/C(=C\C(=O)Nc2ccc(Cl)cc2)C(C)(C)c2ccccc21` the percent span inhibition was “inactive”.

In the case of `COc1cccc2c1C(=O)C=C(C)C2=O`, the percent span inhibition is reported as “inactive”.

`Cc1ccc(-c2cc(C(=O)Nc3nccs3)c3ccccc3n2)o1` was tested, and the percent span inhibition was “inactive”.

In the case of `O=C(NCCc1ccccc1)c1ccc2nc(-c3ccco3)c(-c3ccco3)nc2c1`, the percent span inhibition is reported as “inactive”.

`CCCCc1ccc(NC(=S)NCc2ccc(OC)cc2)cc1` was tested, and the percent span inhibition was “inactive”.

For `O=C(O)c1ccc(NS(=O)(=O)c2ccc3c(c2)C(=O)c2ccccc2C3=O)cc1`, the percent span inhibition was “inactive”.

In the case of `Cn1c(OCc2cccnc2)nc2c1c(=O)n(Cc1ccccc1)c(=O)n2C`, the percent span inhibition is reported as “inactive”.

With `Nc1ccc(N2CCN(CCCCN3C(=O)C4CCCN4C3=O)CC2)cc1` (stereo not given) the percent span inhibition was “inactive”.

In the case of `S=C(NCCc1ccccc1)NCCc1ccccc1`, the percent span inhibition is reported as “inactive”.

With `CC1Cc2ccccc2N1C(=O)c1ccc(N2CCCC2)c([N+](=O)[O-])c1` (stereo not given) the percent span inhibition was “inactive”.

With `C#CCn1cc(C=C2C(=O)c3ccccc3C2=O)c2ccccc21` the percent span inhibition was “inactive”.

In the case of `Cc1cc2nn(-c3cccc4ccccc34)nc2cc1N`, the percent span inhibition is reported as “inactive”.

For `Cn1c(CNc2nc(-c3ccccc3)cs2)nnc1SCC(=O)N1CCc2ccccc21`, the percent span inhibition was “inactive”.

With `CCN1C(=O)/C(=C\C=C2/C=CC=CN2CC)SC1=S` the percent span inhibition was “inactive”.

For `COc1cc(OC)c([N+](=O)[O-])cc1/C=N/NC(=O)c1ccncc1`, the EC50 was “inactive”.

For `O=C(Nc1cccc(-c2ccc3nncn3n2)c1)c1ccco1`, the percent span inhibition was “inactive”.

With `Oc1ccc(C=NCC2COc3ccccc3O2)cc1` (stereo not given) the percent span inhibition was “inactive”.

In the case of `COc1cc(/C=N/Nc2nn3cnnc3c3ccccc23)ccc1O`, the EC50 is reported as 2.36 µM.

With `Cc1ccc(O)c(NC2=C(Cl)C(=O)N(Cc3ccccc3)C2=O)c1` the EC50 was “inactive”.

For `O=C(Cc1ccccc1)OCCNC(=O)c1cccnc1`, the percent span inhibition was “inactive”.

`Cc1ccc(-c2cc(C(=O)Nc3cc(C(=O)O)ccc3C)c3ccccc3n2)cc1` was tested, and the percent span inhibition was “inactive”.

`CCc1ccc(NC(=O)Cc2ccc(OC)cc2)cc1` was tested, and the percent span inhibition was “inactive”.

For `COc1cc(NC(=S)NC(=O)c2cc(C)cc(C)c2)ccc1NC(=O)c1cccs1`, the percent span inhibition was “inactive”.

For `CCc1nn2cc(C(=O)c3cc(C)ccc3O)cnc2c1-c1ccc(F)cc1`, the percent span inhibition was “inactive”.

With `CCN(CC)c1nc(N)nc(N(c2ccccc2)c2ccccc2)n1` the percent span inhibition was “inactive”.

For `COc1ccc(C2C(C#N)=C(C)NC3=C2S(=O)(=O)c2ccccc23)cc1` (stereo not given), the percent span inhibition was “inactive”.

`Cc1cc(C)nc(SCc2cc(=O)c(OC(=O)c3ccc(Cl)c([N+](=O)[O-])c3)co2)n1` gave an EC50 of 6.13 µM.

In the case of `COc1cc(C2Nc3cccc4cccc(c34)N2)cc(OC)c1O`, the percent span inhibition is reported as “inactive”.

For `COC(=O)c1[nH]c2ccccc2c1NC(=O)c1ccccc1[N+](=O)[O-]`, the percent span inhibition was “inactive”.

`CSc1nnc2ccc(-c3cccs3)nn12` was tested, and the percent span inhibition was “inactive”.

`C/C(=N/NC(=O)c1cc(O)c(O)c(O)c1)c1ccc([N+](=O)[O-])cc1` was tested, and the percent span inhibition was “inactive”.

For `Brc1ccc2ncnc(Nc3ccc(N4CCOCC4)cc3)c2c1`, the percent span inhibition was “inactive”.

In the case of `Cc1cc(-c2csc(N)n2)c(C)n1C`, the percent span inhibition is reported as “inactive”.

In the case of `CCOc1ccccc1C(=O)NC1CC2CCCC(C1)N2C1CC1` (stereo not given), the percent span inhibition is reported as “inactive”.

`COc1ccc(NC(=O)c2ccco2)cc1NC(=O)c1ccco1` was tested, and the percent span inhibition was “inactive”.

With `CCCCCCc1cc2cc(C(=O)Nc3ccccc3)c(=O)oc2cc1O` the percent span inhibition was “inactive”.

`NC(=O)c1sc2nc3c(c(-c4ccco4)c2c1N)CCC3` was tested, and the EC50 was “inactive”.

In the case of `N#C/C(=C(/O)CN1CCN(c2ccccc2F)CC1)c1nc(-c2ccccc2)cs1`, the percent span inhibition is reported as “inactive”.

For `CN1CCc2cccc3c2[C@H]1Cc1ccc(O)c(O)c1-3`, the percent span inhibition was “inactive”.

With `O=C(CCCN1C(=O)c2cccc3cccc(c23)C1=O)N1CCN(c2ccccn2)CC1` the percent span inhibition was “inactive”.

With `Cc1ccc(-c2cc(-c3ccccc3)c(C#N)c(N)n2)o1` the percent span inhibition was “inactive”.

With `O=C(Nc1nnc(COc2ccc(Cl)cc2)s1)c1ccco1` the percent span inhibition was “inactive”.

In the case of `CC[n+]1c(/C=C/C=C/N(C(C)=O)c2ccccc2)sc2ccccc21`, the percent span inhibition is reported as “inactive”.

With `Cc1nonc1NC(=O)CSc1nnc(-c2ccoc2C)n1C` the percent span inhibition was “inactive”.

`COc1ccc(-n2cc(-c3ccc(OC)c(OC)c3)[nH]c2=S)cc1` was tested, and the percent span inhibition was “inactive”.

`CC1CCN(C2(O)C(=O)Nc3ccc(Br)cc32)CC1` (stereo not given) was tested, and the percent span inhibition was “inactive”.

With `O=C(NCCCO)Nc1ccc2nc(-c3ccco3)c(-c3ccco3)nc2c1` the percent span inhibition was “inactive”.

For `COC(=O)c1c(NC(=O)COc2ncnc3ccccc23)sc(C)c1C`, the percent span inhibition was “inactive”.

`O=C1c2ccccc2-c2onc3ccc(NCCCn4ccnc4)c1c23` was tested, and the EC50 was “inactive”.

For `COc1ccc(OCCNC(=O)c2ccccc2OCC(=O)N2CCCCC2)cc1`, the percent span inhibition was “inactive”.

`Cc1ccc(/C=C/C(=O)Nc2ccc([N+](=O)[O-])c(NC(=O)/C=C/c3ccc(C)o3)c2)o1` was tested, and the percent span inhibition was “inactive”.

In the case of `COc1cc(/C=C2\S/C(=N/S(=O)(=O)c3ccc(C)cc3)NC2=O)c([N+](=O)[O-])cc1OC`, the percent span inhibition is reported as “inactive”.

In the case of `Cc1ccc(C)n1-c1ccc(N2CCOCC2)cc1`, the percent span inhibition is reported as “inactive”.

With `Fc1ccc(C2=Nc3cccc4cccc(c34)N2)cc1` the percent span inhibition was “inactive”.

In the case of `O=C1c2ccccc2C(=O)N1CN(C(=O)COc1ccc(Cl)cc1Cl)c1cccc(F)c1`, the percent span inhibition is reported as “inactive”.

`COc1ccc(CN(C)CC(=O)NC(C)c2ccccc2)c(OC)c1` (stereo not given) was tested, and the percent span inhibition was “inactive”.

For `Cc1sc2nc(C(C)C)nc(SCC(=O)N3c4ccccc4CC3C)c2c1C` (stereo not given), the percent span inhibition was “inactive”.

For `Cc1ccc(-c2ccc(/C=C/C(=O)c3ccccc3)o2)cc1`, the percent span inhibition was “inactive”.

For `Cc1cccc(/C=N/N(CCO)C2=NS(=O)(=O)c3ccccc32)c1`, the EC50 was “inactive”.

`Cc1ccc(S(=O)(=O)NC(=O)COc2ccccc2C)cc1` was tested, and the percent span inhibition was “inactive”.

`CC1=NN(c2ccc(C)cc2)C(=O)/C1=C\c1ccc(Br)s1` was tested, and the percent span inhibition was “inactive”.
